Assay results as given in patent US20210330611A1, “THERAPY FOR NEUROLOGICAL DISEASES/DISORDERS” (priority 2020, published 2021).
Counter-ions that a name gives are not always drawn. Like-named read-outs stand apart in the source and are kept apart here.

Legend:
[1] = system: fibrin- and LPS-induced microglia activation; experiment: cells; format: cell-based, rat
primary rat microglia [2] = experiment: Cell toxicity (dead cells, size <150 μm2) in LPS assay
[3] = system: fibrin-induced microglia activation; experiment: Image-based assay of fibrin-induced microglia activation (HTS and dose response); format: cell-based, rat; details: for inhibition at 10 µM: Rattus norvegicus, Microglia, read-out: Fibrin % inhibition
[4] = system: LPS-induced microglia activation; experiment: Image-based assay of LPS-induced microglia activation (HTS and dose response); format: cell-based, rat; details: for inhibition at 10 µM: Rattus norvegicus, Microglia, read-out: LPS % inhibition
primary rat microglia [5] = experiment: Cell toxicity (dead cells, size <150 μm2) in coated fibrin (cFib) assay;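 as to Fibrin % cell toxicity: share of dead cells sized under 150 µm2 at 10 µM in fibrin-stimulated microglia HTS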
[6] = HTS of 1907 compounds, quadrant by fibrin and LPS inhibition
[7] = primary microglia HTS, 10 μM, LPS assay, cell size <150 μm^2 as marker of toxicity
[8] = primary microglia HTS, 10 μM, fibrin-stimulated, cell size >800 μm^2 as marker of activation
[9] = primary microglia HTS, 10 μM, LPS-stimulated, cell size >800 μm^2 as marker of activation
[10] = primary microglia HTS, 10 μM, fibrin assay, cell size <150 μm^2 as marker of toxicity
[11] = primary HTS, 10 μM, LPS assay, dead cells size <150 μm2
[12] = primary HTS, 10 μM, fibrin-stimulated primary microglia
[13] = primary HTS, 10 μM, LPS-stimulated primary microglia
[14] = primary HTS, 10 μM, fibrin assay, dead cells size <150 μm2
[15] = quadrant by fibrin and LPS inhibition in HTS of 1907 compounds
[16] = primary microglia HTS, LPS stimulation, decreased size (<150 μm^2) as marker of toxicity
[17] = primary microglia HTS, fibrin stimulation, increased cell size (>800 μm^2) as marker of activation
[18] = primary microglia HTS, fibrin stimulation, decreased size (<150 μm^2) as marker of toxicity
[19] = primary microglia HTS, LPS stimulation, increased cell size (>800 μm^2) as marker of activation
[20] = primary microglia HTS, LPS stimulation, toxicity = cell size <150 μm2
[21] = primary microglia HTS, fibrin stimulation, activation = cell size >800 μm2
[22] = 48 h, primary microglia HTS, LPS stimulation, activation = cell size >800 μm2
[23] = primary microglia HTS, fibrin stimulation, toxicity = cell size <150 μm2

In the case of `CC(C)(C)NC[C@H](O)COc1nsnc1N1CCOCC1` [Timolol Maleate], the “Quadrant (FIG. 5b)” value [1, 6] is reported as “Q4”, the “LPS % cell toxicity” value (primary rat microglia [2]; [7]) is reported as 0% and the Fibrin % inhibition [3, 8] is reported as −4%. The LPS % inhibition [4, 9] was 19% and the “Fibrin % cell toxicity” value (primary rat microglia [5]; [10]) was 0%.
In the case of `Nc1ccc(S(=O)(=O)Nc2ccc(Cl)nn2)cc1` [Sulfachlorpyridazine], the “Quadrant (FIG. 5b)” value [1, 6] is reported as “Q4”, the “LPS % cell toxicity” value (primary rat microglia [2]; [7]) is reported as 0% and the inhibition at 10 µM [3, 8] is reported as 18%. The inhibition at 10 µM [4, 9] was 14% and the “Fibrin % cell toxicity” value (primary rat microglia [5]; [10]) was 1%.
In the case of `CO/N=C(\C(=O)N[C@@H]1C(=O)N2C(C(=O)OCOC(=O)C(C)(C)C)=C(/C=C\c3scnc3C)CS[C@H]12)c1csc(N)n1` [Cefditorin Pivoxil], the “Quadrant (FIG. 5b)” value ([1]; primary HTS, 10 μM) is reported as “Q4”, the “LPS % cell toxicity” value (primary rat microglia [2]; [11]) is reported as 1% and the Fibrin % inhibition [3, 12] is reported as 2%. The LPS % inhibition [4, 13] was 21% and the “Fibrin % cell toxicity” value (primary rat microglia [5]; [14]) was 1%.
`CN(C)CCN(Cc1ccccc1)c1ccccn1` [Tripelennamine] was tested, and the “Quadrant (FIG. 5b)” value [1, 6] was “Q4”, the “LPS % cell toxicity” value (primary rat microglia [2]; [7]) was 0% and the inhibition at 10 µM [3, 8] was 14%. For the same compound, the inhibition at 10 µM [4, 9] was 25% and the “Fibrin % cell toxicity” value (primary rat microglia [5]; [10]) was 1%.
In the case of `CN(C)CCc1c[nH]c2ccc(C[C@H]3COC(=O)N3)cc12` [Zolmitriptan], the “Quadrant (FIG. 5b)” value [1, 6] is reported as “Q4”, the “LPS % cell toxicity” value (primary rat microglia [2]; [7]) is reported as 0% and the inhibition at 10 µM [3, 8] is reported as 9%. For the same compound, the inhibition at 10 µM [4, 9] was 18% and the “Fibrin % cell toxicity” value (primary rat microglia [5]; [10]) was 1%.
With `O=C(O)c1cc(/N=N/c2ccc(O)c(C(=O)O)c2)ccc1O` [Olsalazine] the “Quadrant (FIG. 5b)” value [1, 15] was “Q4”, the “LPS % cell toxicity” value (primary rat microglia [2]; [16]) was 1% and the inhibition at 10 µM [3, 17] was -36%. For the same compound, the inhibition at 10 µM ([4]; 48 h, primary microglia HTS, LPS stimulation, increased cell size (>800 μm^2) as marker of activation) was 22% and the “Fibrin % cell toxicity” value (primary rat microglia [5]; [18]) was 1%.
In the case of “Colistimethate sodium [reference compound]”, the Hit ([1]; HTS hit classification) is reported as “HIT (Hits were defined as molecules that exhibited greater than 50% inhibition of either fibrin or LPS activation)”, the “Quadrant (FIG. 5b)” value [1, 6] is reported as “Q2” and the “Quadrant (FIG. 5b)” value ([1]; Table 1, screen at 10 μM) is reported as “Q2”. For the same compound, the “Cherry-picked Hit (Suppl. Table 7)” value ([1]; hit classification in microglia HTS) was “HIT (Hits were defined as molecules that exhibited greater than 50% inhibition of either fibrin or LPS activation)”, the “Quadrant (FIG. 5b)” value [1, 15] was “Q2” and the “LPS % cell toxicity” value (primary rat microglia [2]; [16]) was 4%. For the same compound, the IC50 (primary rat microglia [2]; read-out: Cell Toxicity IC50 (uM) [LPS assay], LPS assay) was > 20 µM, the IC50 ([3]; Table 1, dose response 0.001-20 μM, triplicates, primary rat microglia, 48 h, read-out: Fibrin IC50) was > 20 µM and the IC50 ([3]; dose response, fibrin-induced microglia activation, read-out: Fibrin IC50) was > 20 µM. The IC50 ([3]; fibrin-induced microglia activation, dose response, read-out: Fibrin IC50 (uM) (Suppl. Table 7)) was > 20 µM, the Fibrin % inhibition [3, 17] was 72% and the IC50 ([4]; LPS-induced microglia activation, dose response, read-out: LPS IC50 (uM) (Suppl. Table 7)) was > 20 µM. The IC50 ([4]; Table 1, dose response 0.001-20 μM, triplicates, primary rat microglia, 48 h, read-out: LPS IC50) was > 20 µM, the IC50 ([4]; dose response, LPS-induced microglia activation, read-out: LPS IC50) was > 20 µM and the LPS % inhibition [4, 19] was 112%. For the same compound, the “Fibrin % cell toxicity” value (primary rat microglia [5]; [18]) was 1% and the IC50 (primary rat microglia [5]; read-out: Cell Toxicity IC50 (uM) [cFib assay], cFib assay) was > 20 µM.
In the case of `CCNC(=O)/C=C/c1cccc(Br)c1` [Cinromide], the “Quadrant (FIG. 5b)” value ([1]; primary HTS, 10 μM) is reported as “Q4”, the “LPS % cell toxicity” value (primary rat microglia [2]; [11]) is reported as 0% and the inhibition at 10 µM [3, 12] is reported as -10%. For the same compound, the inhibition at 10 µM [4, 13] was 13% and the “Fibrin % cell toxicity” value (primary rat microglia [5]; [14]) was 1%.
Gramicidin was tested, and the “Quadrant (FIG. 5b)” value [1, 15] was “Q2”, the “LPS % cell toxicity” value (primary rat microglia [2]; [16]) was 64% and the Fibrin % inhibition [3, 17] was 114%. The LPS % inhibition [4, 19] was 118% and the “Fibrin % cell toxicity” value (primary rat microglia [5]; [18]) was 43%.
In the case of `CCOc1nc2cccc(C(=O)OC(C)OC(=O)OC3CCCCC3)c2n1Cc1ccc(-c2ccccc2-c2nn[nH]n2)cc1` (centres unmarked) [Candesartan Cilextil], the “Quadrant (FIG. 5b)” value ([1]; primary HTS, 10 μM) is reported as “Q4”, the “LPS % cell toxicity” value (primary rat microglia [2]; [11]) is reported as 0% and the Fibrin % inhibition [3, 12] is reported as −5%. For the same compound, the LPS % inhibition [4, 13] was 10% and the “Fibrin % cell toxicity” value (primary rat microglia [5]; [14]) was 1%.
In the case of `O=C1OC(CN2CCOCC2)CN1/N=C/c1ccc([N+](=O)[O-])o1` (centres unmarked) [Furaltadone], the “Quadrant (FIG. 5b)” value [1, 15] is reported as “Q4”, the “LPS % cell toxicity” value (primary rat microglia [2]; [20]) is reported as 0% and the inhibition at 10 µM [3, 21] is reported as -60%. The inhibition at 10 µM [4, 22] was 0% and the “Fibrin % cell toxicity” value (primary rat microglia [5]; [23]) was 1%.
In the case of `C[C@]12CCC(=O)C(O)=C1CC[C@@H]1[C@@H]2CC[C@]2(C)C(=O)CC[C@@H]12` [Formestane], the “Quadrant (FIG. 5b)” value [1, 15] is reported as “Q4”, the “LPS % cell toxicity” value (primary rat microglia [2]; [20]) is reported as 0% and the inhibition at 10 µM [3, 21] is reported as -6%. For the same compound, the inhibition at 10 µM [4, 22] was 10% and the “Fibrin % cell toxicity” value (primary rat microglia [5]; [23]) was 1%.
In the case of `CC(C)[N+](C)(CCC(C(N)=O)(c1ccccc1)c1ccccc1)C(C)C` [Isopropamide], the “Quadrant (FIG. 5b)” value [1, 15] is reported as “Q4”, the “LPS % cell toxicity” value (primary rat microglia [2]; [20]) is reported as 0% and the inhibition at 10 µM [3, 21] is reported as 19%. The inhibition at 10 µM [4, 22] was 24% and the “Fibrin % cell toxicity” value (primary rat microglia [5]; [23]) was 0%.
